Test results: patent publication EP1247803A2, “Indolinone compounds suitable for modulation of protein kinases” (Sugen, Inc., priority 1996, dated 1998)

Experiments:
MET = MET biochemical kinase assay; parameters: species or system human; concentration or dose not given beside the values
Procedure, shortened: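 Immunocaptured MET autophosphorylation, read colorimetrically (TMB) via HRP anti-phosphotyrosine antibody. Kinase reaction initiated with buffer containing ATP and divalent metals after compound addition to plate-bound receptor from lysates.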

FLK-1 receptor = target: T1, FLK-1 receptor (Mus musculus, UniProt P35918); test: FLK-1 ELISA (kinase activity of the FLK-1 receptor in FLK-1/NIH3T3 cells, VEGF stimulated); type: cell-based
T1 construct: expressed in transfected cells; host or cells: NIH3T3 C7#3
Procedure, shortened: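 FLK-1-expressing NIH3T3 C7#3 cells, starved overnight in 0.1% FBS medium, were treated with compounds at a 1:200 final dilution (0.5% DMSO) for 2 h at 37 °C, with VEGF stimulation. FLK-1 kinase activity was read by ELISA on anti-rabbit IgG plates using affinity-purified anti-FLK-1 antiserum.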

T1 sequence (P35918 20-1345): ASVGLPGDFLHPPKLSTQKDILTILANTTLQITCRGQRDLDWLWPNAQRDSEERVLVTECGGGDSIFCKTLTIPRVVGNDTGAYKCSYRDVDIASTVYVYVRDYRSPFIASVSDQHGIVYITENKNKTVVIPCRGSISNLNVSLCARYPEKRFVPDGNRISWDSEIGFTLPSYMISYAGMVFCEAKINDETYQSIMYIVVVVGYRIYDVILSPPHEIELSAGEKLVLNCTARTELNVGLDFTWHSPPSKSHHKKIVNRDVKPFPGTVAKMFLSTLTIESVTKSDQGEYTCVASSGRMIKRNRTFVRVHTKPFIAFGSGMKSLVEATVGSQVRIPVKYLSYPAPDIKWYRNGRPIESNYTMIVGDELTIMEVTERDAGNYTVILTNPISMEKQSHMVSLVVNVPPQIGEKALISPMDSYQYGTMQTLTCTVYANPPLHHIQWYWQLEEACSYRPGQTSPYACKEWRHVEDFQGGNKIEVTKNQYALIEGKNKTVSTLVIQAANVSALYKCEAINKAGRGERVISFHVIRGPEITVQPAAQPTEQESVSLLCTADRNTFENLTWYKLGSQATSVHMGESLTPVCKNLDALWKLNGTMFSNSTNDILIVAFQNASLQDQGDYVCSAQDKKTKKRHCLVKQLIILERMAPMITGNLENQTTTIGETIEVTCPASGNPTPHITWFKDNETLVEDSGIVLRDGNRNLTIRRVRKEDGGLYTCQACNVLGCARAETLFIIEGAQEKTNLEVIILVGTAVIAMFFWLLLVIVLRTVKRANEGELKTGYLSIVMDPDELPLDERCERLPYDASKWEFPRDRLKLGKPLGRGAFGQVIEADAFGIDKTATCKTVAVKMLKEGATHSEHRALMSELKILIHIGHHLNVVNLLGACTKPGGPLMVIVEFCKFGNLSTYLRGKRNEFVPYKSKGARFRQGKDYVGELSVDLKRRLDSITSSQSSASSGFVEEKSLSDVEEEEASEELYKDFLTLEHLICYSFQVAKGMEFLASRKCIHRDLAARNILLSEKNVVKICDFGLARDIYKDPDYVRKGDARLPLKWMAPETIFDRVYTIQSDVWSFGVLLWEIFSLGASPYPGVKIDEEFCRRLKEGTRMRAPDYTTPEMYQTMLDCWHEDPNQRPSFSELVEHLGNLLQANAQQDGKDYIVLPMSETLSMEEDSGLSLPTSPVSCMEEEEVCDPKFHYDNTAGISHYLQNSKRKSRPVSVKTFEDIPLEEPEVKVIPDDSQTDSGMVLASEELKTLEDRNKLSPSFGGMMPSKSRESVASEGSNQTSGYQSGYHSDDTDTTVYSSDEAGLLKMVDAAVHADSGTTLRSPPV

SMILES	Met Kinase % Inhibition (MET) [%]	Fik Kinase %Inhibition (FLK-1 receptor) [%]
CNS(=O)(=O)c1ccc2c(c1)C(=Cc1ccc(N(C)C)cc1)C(=O)N2 [10719/D08]	45.2	8.2
CNS(=O)(=O)c1ccc2c(c1)C(=Cc1cccc([N+](=O)[O-])c1)C(=O)N2 [10719/D10]	22.3	8.3
O=C1Nc2ccc(CCCl)cc2C1=Cc1cccc([N+](=O)[O-])c1 [10719/G10]	35.5	9.7
O=C1Nc2ccc(CCCl)cc2C1=Cc1ccc(O)cc1 [10719/G07]	24.0	20.1
COc1ccc(C=C2C(=O)Nc3ccc(I)cc32)cc1OC [10720/B04]	61.8	9.8
CCOc1ccc(C=C2C(=O)Nc3ccc(CCCl)cc32)cc1OC [10719/G02]	-2.4	27.3
COc1ccc(O)c(C=C2C(=O)Nc3ccc(I)cc32)c1 [10720/B10]	45.2	-5.5
O=C1Nc2ccc(I)cc2C1=Cc1ccccc1O [10720/B05]	51.8	11.6
CN(C)c1ccc(C=C2C(=O)Nc3ccc(S(=O)(=O)Nc4ccc(C(F)(F)F)cc4)cc32)cc1 [10719/E08]	80.0	21.8
CCOc1cc(C=C2C(=O)Nc3ccc(Br)c(C)c32)ccc1O [10720/C09]	47.5	12.1
O=C1Nc2ccc(CCCl)cc2C1=Cc1ccc(F)cc1Cl [10719/G09]	1.3	18.1
CNS(=O)(=O)c1ccc2c(c1)C(=Cc1ccc(O)c(O)c1)C(=O)N2 [10719/D03]	93.2	4.8
O=C1Nc2ccc(S(=O)(=O)Nc3ccc(C(F)(F)F)cc3)cc2C1=Cc1ccc(O)cc1 [10719/E07]	55.5	26.7
O=C1Nc2ccc(S(=O)(=O)Nc3ccc(C(F)(F)F)cc3)cc2C1=Cc1ccc(F)cc1C(F)(F)F [10719/E11]	28.5	26.3
COc1cc(O)ccc1C=C1C(=O)Nc2ccc(I)cc21 [10720/B03]	53.3	6.4
COc1cc(O)ccc1C=C1C(=O)Nc2c(Br)cc(Br)cc21 [10720/A03]	58.2	17.7
COc1cccc(O)c1C=C1C(=O)Nc2ccc(I)cc21 [10717/B10]	56.1	-2.3
CCOc1ccc(C=C2C(=O)Nc3ccc(S(=O)(=O)N4CCOCC4)cc32)cc1OC [10719/F02]	28.1	28.6
O=C1Nc2ccc(S(=O)(=O)N3CCOCC3)cc2C1=Cc1ccc(F)cc1Cl [10719/F09]	19.2	-6.5
CNS(=O)(=O)c1ccc2c(c1)C(=Cc1c(F)cc(F)cc1F)C(=O)N2 [10720/D02]	17.8	12.1
CNS(=O)(=O)c1ccc2c(c1)C(=Cc1ccc(F)cc1Cl)C(=O)N2 [10719/D09]	13.0	7.8
Cc1c(Br)ccc2c1C(=Cc1cccs1)C(=O)N2 [10717/C03]	25.3	-7.7
Cc1c(Br)ccc2c1C(=Cc1ncc[nH]1)C(=O)N2 [10720/C11]	30.0	52.5
CCc1c(C)[nH]c(C=C2C(=O)Nc3ccc(S(=O)(=O)NC)cc32)c1C [10719/D05]	71.8	16.3
O=C1Nc2ccc(I)cc2C1=Cc1ccccc1 [10720/B06]	55.1	7.3
O=C1Nc2ccc(S(=O)(=O)N3CCOCC3)cc2C1=Cc1ccc(O)c(O)c1 [10719/F03]	89.5	11.2
CNS(=O)(=O)c1ccc2c(c1)C(=Cc1ccc(OC)cc1OC)C(=O)N2 [10719/D04]	28.9	27.8

SMILES	Met Kinase % Inhibition (MET) [%]	Fik Kinase %Inhibition (FLK-1 receptor) [%]
COc1ccc(C=C2C(=O)Nc3ccc(S(=O)(=O)N4CCOCC4)cc32)c(OC)c1 [10719/F04]	3.3	26.6
O=C1Nc2ccc(S(=O)(=O)Nc3ccc(C(F)(F)F)cc3)cc2C1=Cc1ccc(F)cc1Cl [10719/E09]	36.1	13.5
O=C1Nc2ccc(I)cc2C1=Cc1ccc[nH]1 [10717/B09]	88.8	-40.7
O=C1Nc2c(Br)cc(Br)cc2C1=Cc1ccccc1 [10720/A06]	63.6	5.6
O=C1Nc2ccc(CCCl)cc2C1=Cc1ccc(O)c(O)c1 [10719/G03]	87.6	-25.8
O=C1Nc2ccc(I)cc2C1=Cc1ccc(Br)cc1 [10717/B08]	88.8	-0.9
Cc1c(Br)ccc2c1C(=Cc1cccc([N+](=O)[O-])c1)C(=O)N2 [10719/C10]	7.9	11.8
CSc1ccc(C=C2C(=O)Nc3ccc(I)cc32)s1 [10720/B07]	61.5	12.0
Cc1cc(O)cc(O)c1C=C1C(=O)Nc2ccc(I)cc21 [10720/B08]	27.7	3.6
CCc1c(C)[nH]c(C=C2C(=O)Nc3ccc(S(=O)(=O)N4CCOCC4)cc32)c1C [10719/F05]	63.1	20.7
CCc1c(C)[nH]c(C=C2C(=O)Nc3ccc(S(=O)(=O)Nc4ccc(C(F)(F)F)cc4)cc32)c1C [10719/E05]	39.0	21.5
COc1ccc(C=C2C(=O)Nc3ccc(S(=O)(=O)Nc4ccc(C(F)(F)F)cc4)cc32)c(OC)c1 [10719/E04]	3.1	31.2
CNS(=O)(=O)c1ccc2c(c1)C(=Cc1ccc(O)cc1OC)C(=O)N2 [10720/D03]	61.5	17.0
CSc1ccc(C=C2C(=O)Nc3ccc(Br)c(C)c32)s1 [10720/C07]	26.7	20.7
CCc1c(C)[nH]c(C=C2C(=O)Nc3ccc(CCCl)cc32)c1C [10719/G05]	15.9	18.0
Cc1c(Br)ccc2c1C(=Cc1ccc(F)cc1C(F)(F)F)C(=O)N2 [10719/C11]	-5.1	9.9
O=C1Nc2c(Br)cc(Br)cc2C1=Cc1ncc[nH]1 [10720/A11]	58.7	-0.6
O=C1Nc2ccc(S(=O)(=O)Nc3ccc(C(F)(F)F)cc3)cc2C1=Cc1cccc([N+](=O)[O-])c1 [10719/E10]	40.2	17.6
Cc1[nH]c(C=C2C(=O)Nc3ccc(I)cc32)c(Br)c1Br [10717/B11]	91.0	11.4
COc1cc(O)ccc1C=C1C(=O)Nc2ccc(Br)c(C)c21 [10720/C03]	50.3	15.1
COc1cc(OC)c(C=C2C(=O)Nc3ccc(S(=O)(=O)Nc4ccc(C(F)(F)F)cc4)cc32)c(OC)c1 [10719/E06]	-4.5	17.1
Cc1c(Br)ccc2c1C(=Cc1ccccc1O)C(=O)N2 [10720/C05]	72.5	-36.1
O=C1Nc2ccc(S(=O)(=O)N3CCOCC3)cc2C1=Cc1ccc(O)cc1 [10719/F07]	36.7	18.7
Cc1cc(O)cc(O)c1C=C1C(=O)Nc2c(Br)cc(Br)cc21 [10720/A08]	77.9	-2.2
Cc1c(Br)ccc2c1C(=Cc1c(F)cc(F)cc1F)C(=O)N2 [10720/C02]	63.6	18.0
COc1cc(OC)c(C=C2C(=O)Nc3ccc(CCCl)cc32)c(OC)c1 [10719/G06]	-18.1	23.2
CNS(=O)(=O)c1ccc2c(c1)C(=Cc1c(OC)cc(OC)cc1OC)C(=O)N2 [10719/D06]	11.2	25.8
